Experimental data reported in paper PMC11643554, “Synthesis, Cytotoxicity and Antiproliferative Effect of New Pyrrole Hydrazones” (Molecules, 2024).
Like-named read-outs stand apart in the source and are kept apart here.

Key:
[1] = BALB 3T3 Neutral Red Uptake safety test (cytotoxicity/phototoxicity); type: cell-based, mouse; settings: mouse, BALB 3T3 clone A31 embryonic fibroblasts, BALB 3T3, NRU, 24 h incubation, n = 6
Description: (§1) The Neutral Red Uptake in vitro assay is a colorimetric method for assessing cell viability. This method is based on the ability of living cells to incorporate Neutral Red dye into lysosomes. Mouse embryonic fibroblasts were seeded at 1 × 10^4 cells/100 μL culture medium/well in 96-well cell culture microplates. The cells were incubated for 24 h to allow cell adhesion. The cells were then treated with a solution of the test substances in double-increasing concentrations (from 15 to 4000 μM). The phototoxicity test was performed in parallel on a second 96-well plate, which was irradiated with a solar simulator (LED lamp—Helios-iO (SERIC Ltd., Tokyo, Japan) for 10 min (irradiation dose 0.86 J). After 24 h of incubation, a culture medium containing Neutral Red was added. After 3 h of incubation, the wells were washed with PBS, and a Desorb solution (50% Ethanol, 1% Acetic acid, 49% dH2O) was added. The optical density (OD) was measured by a microplate reader at λ = 540 nm. The percentage of cytotoxicity was calculated according to the following formula:Cytotoxicity (%) = (1 − (OD540 (sample)/OD540 (negative control))) × 100 Phototoxicity is expressed by Photoirritation factor (PIF), PIF = CC50 − Irr/CC50 +Irr* * Irradiation

[2] = tested on: mouse embryonic fibroblasts BALB 3T3 clone A31; assay: as above; type: cell-based; settings: PIF = CC50 −Irr/CC50 +Irr; PIF < 2 not phototoxic, 2 < PIF < 5 probable phototoxicity, PIF > 5 phototoxic
Description: as §1

SH-4 cells [3] = assay: Annexin V-FITC/PI flow cytometry assay (apoptosis); type: cell-based, human
Description: Apoptosis was discriminated with the annexin V-FITC/PI test according to the manufacturer’s protocol (SIGMA-ALDRICH APOAF). […] After completion of each drug incubation, cell media that may contain cells in suspension was centrifuged at 350× g for 5 min. Subsequently, the cell monolayers were washed once with PBS, and cells were detached with trypsin and then collected together with a centrifuged pellet. The cells were washed twice with cold PBS and then resuspended in a Binding Buffer (0.1 M Hepes/NaOH (pH 7.4), 1.4 M NaCl, 25 mM CaCl2) at a concentration of 1 × 10^5 cells/mL. The cells were incubated with 5 µL of FITC Annexin V and 10 µL PI for 20 min at RT (25 °C) in the dark. The analysis was performed with BD FACS DIVA software version 7.0 (BD Biosciences, Franklin Lakes, NJ, USA). Data were analyzed as follows: lower left quadrant, viable cells (Annexin V−/PI−); lower right quadrant, early apoptotic cells (Annexin V+/PI−); upper right quadrant, late apoptotic cells (annexin V+/PI+); upper left quadrant, necrotic cells (annexin V−/PI+). Three independent experiments were performed, with two replicates per experiment.

human melanoma SH-4 = assay: Antiproliferative activity, MTT dye reduction assay, SH-4; type: cell-based; settings: for IC50: melanoma SH-4, MTT, 72 h, n = 6, read-out: Mean IC50 ± SD, SH-4; for SI (Selective index): SI = IC50 (non-tumor cell line HaCaT)/IC50 (tumor cell line SH-4)
Description: (§2) The antiproliferative activity of the studied substances was determined by MTT dye reduction assay. The assay is based on the metabolism of MTT by reductases in the mitochondria to formazan, the concentration of which can be determined photometrically. The measured absorbance is an indicator of cell viability and metabolic activity. Cells were seeded in 96-well cell culture plates (1 × 10^3 cells/well). Followed by incubation at 37 °C, 5% CO2 for 24 h. Followed by incubation for 72 h of the cells with the studied substances in twice increasing concentrations. After washing with PBS, 100 µL/well of MTT solution (0.5 mg/mL) was added. After 3 h of incubation, the 96-well plates were washed with PBS, and 100 µL/well of lysing solution (DMSO/Ethanol = 1/1) was added. Optical density was measured at a wavelength of 540 nm. The antiproliferative activity expressed in % of the negative control was calculated according to the following formula:Antiproliferative activity (%) = (1 − (OD540 (sample)/OD540 (negative control))) × 100
(§3) The IC50 values (a concentration that inhibited 50% cell proliferation) were calculated using non-linear regression analysis (GraphPad Prizm8 Software). The statistical analysis included the application of one-way ANOVA followed by Bonferroni’s post hoc test. p < 0.05 was accepted as the lowest level of statistical significance. All results are presented as mean ± SD.

SH-4 cells [4] = assay: Cell cycle analysis, PI stain, flow cytometry; type: cell-based, human; settings: SH-4, 48 h; for G2 phase, percentage of cells / S phase, percentage of cells / G0/G1 phase, percentage of cells: 1 6 µM, 1A 260 µM, 1B 260 µM, 1C 40 µM, 1D 8 µM, cisplatin 20 µM; for G2 phase, percentage of cells: control 12.1; for S phase, percentage of cells: control 21.6; for G0/G1 phase, percentage of cells: control 63.6
Description: After incubation, cells were washed twice with ice-cold PBS and fixed with ice-cold 70% ethanol at −20 °C overnight. The cells were treated with 20 µg/mL RNase A at 37 °C for 60 min, then washed with PBS and finally stained with 20 µg/mL PI in the dark for 30 min. The cellular DNA content for the cell cycle distribution analysis was performed with the system software (BD FACS DIVA software (BD Biosciences, Franklin Lakes, NJ, USA)), plotting at least 10,000 events per sample. Three independent experiments were performed, with two replicates per experiment.

[5] = tested on: human keratinocytes HaCaT; assay: Antiproliferative activity, MTT dye reduction assay, HaCaT; type: cell-based; settings: non-tumor keratinocytes HaCaT, 72 h, n = 6, read-out: Mean IC50 ± SD, HaCaT
Description: as §2, §3

[6] = irradiated with solar simulator 10 min (0.86 J), read-out: Mean CC50 ± SD, +Irr
[7] = without irradiation, read-out: Mean CC50 ± SD, −Irr
[8] = SH-4, 48 h, 1 6 µM, 1A 260 µM, 1B 260 µM, 1C 40 µM, 1D 8 µM, cisplatin 20 µM

## CN(C)CCCN1c2ccccc2Sc2ccc(Cl)cc21 [Chlorpromazine, reference compound]
[1]; [6]
  CC50 at 24 h: 9.13 ± 0.72 µM
[1]; [7]
  CC50 at 24 h: 65.8 ± 2.64 µM
[2]
  PIF (Photo Irritation Factor): 7.21

## N.N.[Cl][Pt][Cl] [Cisplatin, reference compound]
SH-4 cells [3]; [8]
  Early apoptosis (Annexin V+/PI−, Q3): 36.4%
  Late apoptosis (Annexin V+/PI+, Q2): 2.59%
  Necrosis (Annexin V−/PI+, Q1): 0.34%
Human melanoma SH-4
  IC50: 22.8 ± 1.47 µM
SH-4 cells [4]
  G2 phase, percentage of cells: 17.7%
  S phase, percentage of cells: 61.3%
  G0/G1 phase, percentage of cells: 17.8%
[5]
  IC50: 8.64 ± 0.42 µM

## CCOC(=O)c1cc(-c2ccc(Cl)cc2)n(C(Cc2ccccc2)C(=O)NN)c1C (stereo not drawn) [Compound 1, Ethyl-5-(4-chlorophenyl)-1-(1-hydrazinyl-1-oxo-3-phenylpropan-2-yl)-2-methyl-1H-pyrrole-3-carboxylate]
other
  melting point: 170 to 173 °C
SH-4 cells [3]; Homo sapiens, SH-4, 48 h, read-out: Live (viable cells, Annexin V−/PI−, Q4)
  viability at 6 µM: 48.3%
SH-4 cells [3]; [8]
  Early apoptosis (Annexin V+/PI−, Q3): 42.7%
  Late apoptosis (Annexin V+/PI+, Q2): 8.74%
  Necrosis (Annexin V−/PI+, Q1): 0.19%
SH-4 cells [3]; SH-4, 48 h incubation, 6 µM
  increase of total apoptotic cell populations compared to the control group: 50%
Human melanoma SH-4; Homo sapiens
  IC50: 6.86 ± 0.6 µM
Human melanoma SH-4
  SI (Selective index): 1.41
SH-4 cells [4]
  G2 phase, percentage of cells: 13.4%
  S phase, percentage of cells: 28.5%
  G0/G1 phase, percentage of cells: 57%
[5]; Homo sapiens
  IC50: 9.64 ± 0.58 µM
[1]; [6]
  CC50 at 24 h: 55.8 ± 4.49 µM
[1]; [7]
  CC50 at 24 h: 52.3 ± 2.63 µM
[2]
  PIF (Photo Irritation Factor): 0.94

## CCOC(=O)c1cc(-c2ccc(Cl)cc2)n(C(Cc2ccccc2)C(=O)N/N=C/c2[nH]c(C(=O)OCC)c(C)c2C(=O)OCC)c1C (stereo not drawn) [Compound 1A, Diethyl(E)-5-((2-(2-(5-(4-chlorophenyl)-3-(ethoxycarbonyl)-2-methyl-1H-pyrrol-1-yl)-3-phenylpropanoyl)hydrazineylidene)methyl)-3-methyl-1H-pyrrole-2,4-dicarboxylate]
other
  melting point: 109 to 112 °C
SH-4 cells [3]; SH-4, 48 h, 260 µM, versus Cisplatin 20 µM
  apoptotic activity (in words): comparable apoptotic activity with positive control
SH-4 cells [3]; [8]
  Early apoptosis (Annexin V+/PI−, Q3): 36.5%
  Late apoptosis (Annexin V+/PI+, Q2): 4.78%
  Live (viable cells, Annexin V−/PI−, Q4): 58.2%
  Necrosis (Annexin V−/PI+, Q1): 0.50%
Human melanoma SH-4; Homo sapiens
  IC50: 270 ± 13.5 µM
Human melanoma SH-4
  SI (Selective index): 1.87
SH-4 cells [4]; at IC50 doses
  effect on cell cycle distribution (in words): no significant changes in the cell cycle distribution
SH-4 cells [4]
  G2 phase, percentage of cells: 14.8%
  S phase, percentage of cells: 24.5%
  G0/G1 phase, percentage of cells: 59.8%
[5]; Homo sapiens
  IC50: 503 ± 31.1 µM
[1]; [6]
  CC50 at 24 h: 2840 ± 124 µM
[1]; [7]
  CC50 at 24 h: 3140 ± 167 µM
[2]
  PIF (Photo Irritation Factor): 1.11
